Laboratory results published in patent publication US11590116B2 (THERAVANCE BIOPHARMA R&D IP, LLC, priority 2019, dated 2023).

Columns and labels:
[1] = test system: TGF-β-stimulated SMAD3 phosphorylation in BEAS-2B cells; experiment: Cellular ALK5 potency assay, inhibition of TGF-β stimulated pSMAD3 formation in BEAS-2B cells; format: cell-based; conditions: Homo sapiens; inhibition of TGF-β stimulated pSMAD3 formation, BEAS-2B cells; read-out: BEAS2B pIC50 (converted)
How it was run: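 Cells seeded overnight; rinse with supplemented HBSS; compound 1 h at 37 °C; TGF-β 10 ng/mL final, 30 min; lyse; AlphaLISA acceptor and detector beads 2 h apart, read next day. Potency expressed as pIC50.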

[2] = target: T1, recombinant human ALK5 (TGF-βR1) protein (Homo sapiens, UniProt P36897); experiment: Biochemical ALK5 (TGF-βR1) assay to measure pKi (LANCE Ultra ULight kinase assay); conditions: apparent pKi from pIC50 by Cheng-Prusoff, read-out: ALK5 pKi (converted)
T1 construct: purchased Life Technologies PR9075A
T1 sequence (P36897 34-503): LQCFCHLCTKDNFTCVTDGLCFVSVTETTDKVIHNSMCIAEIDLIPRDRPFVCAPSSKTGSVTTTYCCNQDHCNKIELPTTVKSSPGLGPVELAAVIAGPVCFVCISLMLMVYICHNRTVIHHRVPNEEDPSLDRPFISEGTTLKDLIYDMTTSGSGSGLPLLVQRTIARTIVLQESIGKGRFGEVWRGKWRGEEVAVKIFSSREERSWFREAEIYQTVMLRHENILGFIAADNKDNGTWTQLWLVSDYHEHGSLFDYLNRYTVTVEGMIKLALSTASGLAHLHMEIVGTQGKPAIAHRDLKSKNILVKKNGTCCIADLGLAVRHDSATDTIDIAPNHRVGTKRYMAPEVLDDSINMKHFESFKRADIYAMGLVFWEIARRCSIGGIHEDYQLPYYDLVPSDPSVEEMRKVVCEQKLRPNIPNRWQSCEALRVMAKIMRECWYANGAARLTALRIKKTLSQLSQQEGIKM
How it was run: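 After a 60 min room-temperature preincubation of ALK5 with compound, phosphorylation proceeds 60 min at 37 °C on ATP addition (125 μM as 5× stock). Detection: Eu-labelled phospho-Thr1342 Topo IIα antibody in EDTA buffer, pH 7.0; emission 665 nm.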

Compound | IC50 [1] [nM] | Ki [2] [nM]
Cc1cccc(-c2n[nH]cc2-c2ccc3nccc(N(C)CC(=O)N4CCOCC4)c3n2)n1 [Compound 836, 2-[methyl-[6-[3-(6-methyl-2-pyridyl)-1H-pyrazol-4-yl]-1,5-naphthyridin-4-yl]amino]-1-morpholino-ethanone] | 200 to 1260 | 3.98 to 31.6
Cc1cccc(-c2n[nH]cc2-c2ccc3nccc(N(C)C)c3n2)n1 [Compound 837, N,N-dimethyl-6-[3-(6-methyl-2-pyridyl)-1H-pyrazol-4-yl]-1,5-naphthyridin-4-amine] | 25.1 to 158 | 0.0398 to 0.316
CNc1ccnc2ccc(-c3c[nH]nc3-c3cccc(C)n3)nc12 [Compound 838, N-methyl-6-[3-(6-methyl-2-pyridyl)-1H-pyrazol-4-yl]-1,5-naphthyridin-4-amine] | 25.1 to 158 | 0.398 to 3.16
Cc1cccc(-c2n[nH]cc2-c2ccc3nccc(NC(=O)CN4CCN(C(C)C)CC4)c3n2)n1 [Compound 839, 2-(4-isopropylpiperazin-1-yl)-N-[6-[3-(6-methyl-2-pyridyl)-1H-pyrazol-4-yl]-1,5-naphthyridin-4-yl]acetamide] | 25.1 to 158 | 0.398 to 3.16
Cc1cccc(-c2n[nH]cc2-c2ccc3nccc(NC(=O)CN4CCOCC4)c3n2)n1 [Compound 840, N-[6-[3-(6-methyl-2-pyridyl)-1H-pyrazol-4-yl]-1,5-naphthyridin-4-yl]-2-morpholino-acetamide] | 25.1 to 158 | 0.0398 to 0.316
Cc1cccc(-c2n[nH]cc2-c2ccc3nccc(NC(=O)CCN4CCOCC4)c3n2)n1 [Compound 841, N-[6-[3-(6-methyl-2-pyridyl)-1H-pyrazol-4-yl]-1,5-naphthyridin-4-yl]-3-morpholino-propanamide] | 25.1 to 158 | 0.398 to 3.16
Cc1cccc(-c2n[nH]cc2-c2ccc3nccc(NC(=O)CCCN4CCOCC4)c3n2)n1 [Compound 842, N-[6-[3-(6-methyl-2-pyridyl)-1H-pyrazol-4-yl]-1,5-naphthyridin-4-yl]-4-morpholino-butanamide] | 25.1 to 158 | 0.398 to 3.16
Cc1cccc(-c2n[nH]cc2-c2ccc3nccc(NC(=O)CCN4CCN(C(C)C)CC4)c3n2)n1 [Compound 843, 3-(4-isopropylpiperazin-1-yl)-N-[6-[3-(6-methyl-2-pyridyl)-1H-pyrazol-4-yl]-1,5-naphthyridin-4-yl]propanamide] | 25.1 to 158 | 0.398 to 3.16
Cc1cccc(-c2n[nH]cc2-c2ccc3nccc(N4CCC(N5CCN(C)CC5)CC4)c3n2)n1 [Compound 845, 8-[4-(4-methylpiperazin-1-yl)-1-piperidyl]-2-[3-(6-methyl-2-pyridyl)-1H-pyrazol-4-yl]-1,5-naphthyridine] | 200 to 1260 | 0.398 to 3.16
Cc1cccc(-c2n[nH]cc2-c2ccc3nccc(N4CC(N5CCOCC5)C4)c3n2)n1 [Compound 846, 4-[1-[6-[3-(6-methyl-2-pyridyl)-1H-pyrazol-4-yl]-1,5-naphthyridin-4-yl]azetidin-3-yl]morpholine] | 200 to 1260 | 0.398 to 3.16
Cc1cccc(-c2n[nH]cc2-c2ccc3nccc(N4CCC(N5CCOCC5)CC4)c3n2)n1 [Compound 847, 4-[1-[6-[3-(6-methyl-2-pyridyl)-1H-pyrazol-4-yl]-1,5-naphthyridin-4-yl]-4-piperidyl]morpholine] | 25.1 to 158 | 0.0398 to 0.316
Cc1cccc(-c2n[nH]cc2-c2ccc3nccc(N(C)CCCN4CCOCC4)c3n2)n1 [Compound 848, N-methyl-6-[3-(6-methyl-2-pyridyl)-1H-pyrazol-4-yl]-N-(3-morpholinopropyl)-1,5-naphthyridin-4-amine] | 200 to 1260 | 0.0398 to 0.316
Cc1cccc(-c2n[nH]cc2-c2ccc3nccc(CN4CCC(N5CCOCC5)CC4)c3n2)n1 [Compound 849, 4-[1-[[6-[3-(6-methyl-2-pyridyl)-1H-pyrazol-4-yl]-1,5-naphthyridin-4-yl]methyl]-4-piperidyl]morpholine] | 200 to 1260 | 0.398 to 3.16
Cc1cccc(-c2n[nH]cc2-c2ccc3nccc(CN4CC(N5CCOCC5)C4)c3n2)n1 [Compound 850, 4-[1-[[6-[3-(6-methyl-2-pyridyl)-1H-pyrazol-4-yl]-1,5-naphthyridin-4-yl]methyl]azetidin-3-yl]morpholine] | 200 to 1260 | 0.398 to 3.16
Cc1cccc(-c2n[nH]cc2-c2ccc3nccc(Cl)c3n2)n1 [Compound 851, 8-chloro-2-[3-(6-methyl-2-pyridyl)-1H-pyrazol-4-yl]-1,5-naphthyridine] | < 20 | 0.0398 to 0.316
Cc1cccc(-c2n[nH]cc2-c2ccc3nccc(-c4nc(CO)co4)c3n2)n1 [Compound 852, [2-[6-[3-(6-methyl-2-pyridyl)-1H-pyrazol-4-yl]-1,5-naphthyridin-4-yl]oxazol-4-yl]methanol] | 25.1 to 158 | 0.0398 to 0.316
Cc1cccc(-c2n[nH]cc2-c2ccc3nccc(CN(C)CCCN4CCOCC4)c3n2)n1 [Compound 853, N-methyl-N-[[6-[3-(6-methyl-2-pyridyl)-1H-pyrazol-4-yl]-1,5-naphthyridin-4-yl]methyl]-3-morpholino-propan-1-amine] | 25.1 to 158 | 0.0398 to 0.316
Cc1cccc(-c2n[nH]cc2-c2ccc3nccc(-c4cn(-c5ccccc5)nn4)c3n2)n1 [Compound 854, 2-[3-(6-methyl-2-pyridyl)-1H-pyrazol-4-yl]-8-(1-phenyltriazol-4-yl)-1,5-naphthyridine] | 25.1 to 158 | 0.0398 to 0.316
CCOC(=O)Cc1ccnc2ccc(-c3c[nH]nc3-c3cccc(C)n3)nc12 [Compound 855, ethyl 2-[6-[3-(6-methyl-2-pyridyl)-1H-pyrazol-4-yl]-1,5-naphthyridin-4-yl]acetate] | 25.1 to 158 | 0.0398 to 0.316
Cc1cccc(-c2n[nH]cc2-c2ccc3nccc(N4CCNCC4)c3n2)n1 [Compound 856, 2-[3-(6-methyl-2-pyridyl)-1H-pyrazol-4-yl]-8-piperazin-1-yl-1,5-naphthyridine] | 25.1 to 158 | 0.0398 to 0.316
CC(=O)Oc1ccnc2ccc(-c3c[nH]nc3-c3cccc(C)n3)nc12 [Compound 857, [6-[3-(6-methyl-2-pyridyl)-1H-pyrazol-4-yl]-1,5-naphthyridin-4-yl]acetate] | 25.1 to 158 | 0.398 to 3.16
CCOC(=O)c1ccnc2ccc(-c3c(-c4cccc(C)n4)n[nH]c3-c3cccc(F)c3)nc12 [Compound 858, ethyl 6-[5-(3-fluorophenyl)-3-(6-methyl-2-pyridyl)-1H-pyrazol-4-yl]-1,5-naphthyridine-4-carboxylate] | 200 to 1260 | 3.98 to 31.6
CCOC(=O)c1c(-c2cccc(F)c2)cnc2ccc(-c3c[nH]nc3-c3cccc(C)n3)nc12 [Compound 859, ethyl 3-(3-fluorophenyl)-6-[3-(6-methyl-2-pyridyl)-1H-pyrazol-4-yl]-1,5-naphthyridine-4-carboxylate] | 200 to 1260 | 0.398 to 3.16
COC(Cc1ccnc2ccc(-c3c[nH]nc3-c3cccc(C)n3)nc12)OC [Compound 860, 8-(2,2-dimethoxyethyl)-2-[3-(6-methyl-2-pyridyl)-1H-pyrazol-4-yl]-1,5-naphthyridine] | 25.1 to 158 | 0.398 to 3.16
Cc1cccc(-c2n[nH]cc2-c2ccc3nccc(C4COC5(CCNC5)CN4)c3n2)n1 (stereo not drawn) [Compound 862, 8-[6-[3-(6-methyl-2-pyridyl)-1H-pyrazol-4-yl]-1,5-naphthyridin-4-yl]-6-oxa-2,9-diazaspiro[4.5]decane] | 200 to 1260 | 3.98 to 31.6
Cc1cccc(-c2n[nH]cc2-c2ccc3nccc(C4COCC(C)N4)c3n2)n1 (stereo not drawn) [Compound 863, 3-methyl-5-[6-[3-(6-methyl-2-pyridyl)-1H-pyrazol-4-yl]-1,5-naphthyridin-4-yl]morpholine] | 200 to 1260 | 3.98 to 31.6
COC(=O)c1ccnc2ccc(-c3c(OC)n[nH]c3-c3cccc(C)n3)nc12 [Compound 864, methyl 6-[3-methoxy-5-(6-methyl-2-pyridyl)-1H-pyrazol-4-yl]-1,5-naphthyridine-4-carboxylate] | 200 to 1260 | 0.398 to 3.16
CNCCn1cc(-c2ccnc3ccc(-c4c[nH]nc4-c4cccc(C)n4)cc23)cn1 [Compound 865, N-methyl-2-[4-[6-[3-(6-methyl-2-pyridyl)-1H-pyrazol-4-yl]-4-quinolyl]pyrazol-1-yl]ethanamine] | 25.1 to 158 | 0.0398 to 0.316
Cc1cccc(-c2n[nH]cc2-c2ccc3nccc(-c4cn[nH]c4)c3c2)n1 [Compound 866, 6-[3-(6-methyl-2-pyridyl)-1H-pyrazol-4-yl]-4-(1H-pyrazol-4-yl)quinoline] | 25.1 to 158 | < 0.0316
Cc1cccc(-c2n[nH]cc2-c2ccc3nccc(N4CCNCC4)c3c2)n1 [Compound 868, 6-[3-(6-methyl-2-pyridyl)-1H-pyrazol-4-yl]-4-piperazin-1-yl-quinoline] | 25.1 to 158 | 0.398 to 3.16
